Data published in ChEMBL document CHEMBL1135668, “Design, synthesis, structure-activity relationships, and molecular modeling studies of 2,3-diaryl-1,3-thiazolidin-4-ones as potent anti-HIV agents” (J Med Chem, 2002).
The source made the active and inactive calls. The calls are words filed in the database; no cut-off is given here.

Experiments:
[1] = system: Human immunodeficiency virus 1; test: Selectivity index as the ratio of CC50 to that of EC50 value in MT cells; assay type: functional
[2] = system: Human immunodeficiency virus 1; test: Cytotoxic concentration (anti-HIV activity) required to reduce […] by 50% in MT-4 cells; assay type: functional; details: Human immunodeficiency virus 1, MT4
[3] = system: Human immunodeficiency virus 1; test: Effective concentration (anti-HIV activity) required to reduce HIV-1 induced cytopathic effect by 50% in MT-4 cells; assay type: functional, organism-based; details: Human immunodeficiency virus 1, MT4
[4] = Selectivity index as the ratio of CC50 to that of EC50 value.; assay type: functional
[5] = system: Human immunodeficiency virus 1; test: Effective concentration (anti-HIV activity) required to reduce HIV-1 induced cytopathic effect by 50%in CEM cells; assay type: functional, organism-based; details: Human immunodeficiency virus 1, CCRF-CEM
[6] = biological target: Human immunodeficiency virus type 1 reverse transcriptase (Human immunodeficiency virus 1, UniProt Q72547); test: HIV-1 reverse transcriptase (RT) activity using Poly (rC)/oligo (dG) as template/primer and [3H]dGTP
[7] = Selectivity index as the ratio of CC50 to that of EC50 value in CEM cells; assay type: functional, CCRF-CEM
[8] = system: Human immunodeficiency virus 1; test: Concentration required to reduced HIV-1-induced cytopathic effect by 50%in CEM cells; assay type: functional; details: Human immunodeficiency virus 1, CCRF-CEM
[9] = system: Human immunodeficiency virus 1; test: (§1) Concentration required to reduced HIV-1-induced cytopathic effect by 50% in CEM cells; assay type: functional; details: Human immunodeficiency virus 1, CCRF-CEM
[10] = system: Human immunodeficiency virus 1; test: Concentration required to reduce CEM cell viability by 50%; details: Human immunodeficiency virus 1, CCRF-CEM
[11] = system: Human immunodeficiency virus 1; test: Effective concentration (anti-HIV activity) required to reduce HIV-1 induced cytopathic effect by 50% in MT-4 cells; NA is Not Active.; assay type: functional, organism-based; details: mt4
[12] = biological target: Human immunodeficiency virus type 1 reverse transcriptase (Human immunodeficiency virus 1) (UniProt Q72547); test: HIV-1 reverse transcriptase (RT) enzymatic activity was evaluated using Poly (rC)/oligo (dG) as template/primer and [3H]dGTP as radio labeled substrate;NA is not active.
[13] = system: Human immunodeficiency virus 1; test: Effective concentration (anti-HIV activity) required to reduce HIV-1 induced cytopathic effect by 50%in CEM cells; NA is Not Active.; assay type: functional, organism-based; details: ccrf-cem
[14] = system: Human immunodeficiency virus 1; test: Anti-HIV-1 activity against mutant HIV-1 strain (HIV-1IIIB) in CEM cells; assay type: functional, organism-based; details: Human immunodeficiency virus 1, CCRF-CEM
[15] = system: Human immunodeficiency virus 1; test: Anti-HIV-1 activity against mutant HIV-1 strain(188 Tyr-His) in CEM cells; assay type: functional, organism-based; details: Human immunodeficiency virus 1, CCRF-CEM
[16] = system: Human immunodeficiency virus 1; test: Anti-HIV-1 activity against mutant HIV-1 strain (103Lys-Asn) in CEM cells; assay type: functional, organism-based; details: Human immunodeficiency virus 1, CCRF-CEM
[17] = system: Human immunodeficiency virus 1; test: Anti-HIV-1 activity against mutant HIV-1 strain (100Leu-Ile) in CEM cells; assay type: functional, organism-based; details: Human immunodeficiency virus 1, CCRF-CEM
[18] = system: Human immunodeficiency virus 1; test: Anti-HIV-1 activity against mutant HIV-1 strain (138Glu-Lys) in CEM cells; assay type: functional, organism-based; details: Human immunodeficiency virus 1, CCRF-CEM
[19] = system: Human immunodeficiency virus 1; test: Concentration required to reduce CEM cell viability by 50%; details: Human immunodeficiency virus 1, CCRF-CEM; remark: listed apart in the source
[20] = biological target: Human immunodeficiency virus type 1 reverse transcriptase (Human immunodeficiency virus 1) (UniProt Q72547); test: HIV-1 reverse transcriptase (RT) enzymatic activity was evaluated using Poly (rC)/oligo (dG) as template/primer and [3H]dGTP as radio labelled substrate
[21] = system: Human immunodeficiency virus 1; test: Anti-HIV-1 activity against mutant HIV-1 strain(181 Tyr-Cys) in CEM cells; assay type: functional, organism-based; details: Human immunodeficiency virus 1, CCRF-CEM
[22] = system: Human immunodeficiency virus 1; test: as §1; assay type: functional, organism-based; details: Human immunodeficiency virus 1, CCRF-CEM
[23] = system: Human immunodeficiency virus 1; test: Effective concentration (anti-HIV activity) required to reduce HIV-1 induced cytopathic effect by 50% in MT-4 cells; NA is Not Active; assay type: functional, organism-based; details: mt4

| SMILES | Selectivity index [1] | CC50 [2] | EC50 [3] | EC50 [5] | IC50 [6] | Selectivity index [7] | further results |
| --- | --- | --- | --- | --- | --- | --- | --- |
| Cc1ccc(N2C(=O)CSC2c2c(F)cccc2F)nc1 (stereo unspecified) | 39.3 | 202 µM | 5.13 µM | – | – | – | – |
| O=C1CSC(c2c(F)cccc2F)N1c1cccnc1 (stereo unspecified) | – | > 427 µM | 95.1 µM | – | – | – | Selectivity index [4]: > 4.5 |
| Cc1cccc(N2C(=O)CSC2c2c(F)cccc2Cl)n1 (stereo unspecified) | 601 | 31.9 µM | 0.053 µM | 0.04 µM | 2.85 µM | 1108 | CC50 [8]: 44.3 µM |
| Cc1cccnc1N1C(=O)CSC1c1c(F)cccc1F (stereo unspecified) | >6 | > 319 µM | 53.5 µM | – | – | – | – |
| Cc1cc(C)nc(N2C(=O)CSC2c2c(F)cccc2F)c1 (stereo unspecified) | 735 | 43.4 µM | 0.059 µM | 0.078 µM | 4.12 µM | >=800 | CC50 [9]: ≥ 62.4 µM |
| O=C1CSC(c2c(F)cccc2F)N1c1ccc(Br)cn1 (stereo unspecified) | 7.4 | 36.1 µM | 4.85 µM | 2.5 µM | 61.4 µM | 18 | CC50 [10]: 45.8 µM |
| O=C1CSC(c2c(F)cccc2F)N1c1ccncc1 (stereo unspecified) | – | 33.9 µM | – | – | – | – | EC50 [11]: Not Active; IC50 [12]: inactive; CC50 [10]: 284 µM; EC50 [13]: Not Active |
| Cc1cccc(N2C(=O)CSC2c2c(Cl)cccc2Cl)n1 (stereo unspecified) | 6470 | 285 µM | 0.044 µM | – | 2.24 µM | – | EC50 [14]: 0.073 µM; EC50 [15]: 16.2 µM; EC50 [16]: ≥ 60 µM; EC50 [17]: 0.15 µM; EC50 [18]: 0.117 µM |
| Cc1ccnc(N2C(=O)CSC2c2c(F)cccc2Cl)c1 (stereo unspecified) | 343 | 33.9 µM | 0.099 µM | 0.108 µM | 4.12 µM | 525 | CC50 [9]: 56.7 µM |
| O=C1CSC(c2c(F)cccc2Cl)N1c1cccc(Br)n1 (stereo unspecified) | 484 | 30.7 µM | 0.064 µM | – | – | – | – |
| O=C1CSC(c2c(F)cccc2F)N1c1cccc(Br)n1 (stereo unspecified) | 1066 | 32 µM | 0.03 µM | 0.03 µM | – | >8980 | EC50 [14]: 0.026 µM; EC50 [15]: 1.02 µM; EC50 [16]: > 11 µM; EC50 [17]: 0.94 µM; EC50 [18]: 0.073 µM; CC50 [19]: > 269 µM; IC50 [20]: 0.91 µM; EC50 [21]: 1.88 µM |
| O=C1CSC(c2c(Cl)cccc2Cl)N1c1cccc(Br)n1 (stereo unspecified) | 248 | 67.4 µM | 0.272 µM | 0.173 µM | – | >1431 | CC50 [8]: > 248 µM |
| c1ccc2[nH]c(-c3cscn3)nc2c1 [THIABENDAZOLE] | 54.5 | 19.2 µM | 0.352 µM | 1.1 µM | 14.6 µM | 45 | CC50 [9]: 50 µM; EC50 [14]: 1.39 µM; EC50 [15]: 4.16 µM; EC50 [16]: 15.6 µM; EC50 [17]: 3.12 µM; EC50 [18]: 1.73 µM; EC50 [21]: 13.8 µM |
| Cc1ccc(N2C(=O)CSC2c2c(Cl)cccc2Cl)nc1 (stereo unspecified) | 17.7 | 24.9 µM | 1.41 µM | 1.32 µM | 42.4 µM | 24 | EC50 [22]: 31.2 µM |
| O=C1CSC(c2c(F)cccc2Cl)N1c1ccccn1 (stereo unspecified) | 150 | 41.7 µM | 0.278 µM | 0.242 µM | – | 791 | CC50 [8]: 191 µM |
| O=C1CSC(c2c(Cl)cccc2Cl)N1c1ccncc1 (stereo unspecified) | – | 10 µM | – | – | – | – | EC50 [11]: Not Active |

| SMILES | Selectivity index [1] | CC50 [2] | EC50 [3] | EC50 [5] | IC50 [6] | Selectivity index [7] | further results |
| --- | --- | --- | --- | --- | --- | --- | --- |
| O=C1CSC(c2c(F)cccc2F)N1c1ccccn1 (stereo unspecified) | >500 | > 427 µM | 0.855 µM | – | – | – | – |
| Cc1cc(C)nc(N2C(=O)CSC2c2c(Cl)cccc2Cl)c1 (stereo unspecified) | 712 | 64.1 µM | 0.09 µM | 0.13 µM | – | >=2178 | CC50 [10]: ≥ 283 µM |
| O=C1CSC(c2c(Cl)cccc2Cl)N1c1ccccn1 (stereo unspecified) | 216.3 | 38.5 µM | 0.178 µM | – | – | – | – |
| O=C1CSC(c2c(Cl)cccc2Cl)N1c1ccccc1 (stereo unspecified) | 95 | 38.1 µM | 0.401 µM | – | – | – | – |
| Cc1ccnc(N2C(=O)CSC2c2c(F)cccc2F)c1 (stereo unspecified) | 976 | 242 µM | 0.248 µM | – | 2.84 µM | – | – |
| Cc1cc(C)nc(N2C(=O)CSC2c2c(F)cccc2Cl)c1 (stereo unspecified) | 986 | 41.6 µM | 0.042 µM | – | – | – | – |
| O=C1CSC(c2c(F)cccc2F)N1c1ccc(Cl)cn1 (stereo unspecified) | 4.2 | 29.8 µM | 7.19 µM | 4.13 µM | 67 µM | 11 | CC50 [10]: 47.1 µM |
| Cc1cccnc1N1C(=O)CSC1c1c(Cl)cccc1Cl (stereo unspecified) | – | 42.6 µM | – | – | – | – | EC50 [11]: Not Active |
| Cc1ccnc(N2C(=O)CSC2c2c(Cl)cccc2Cl)c1 (stereo unspecified) | >2500 | > 368 µM | 0.147 µM | – | – | – | – |
| O=C1CSC(c2c(Cl)cccc2Cl)N1c1ccc(Cl)cn1 (stereo unspecified) | 11 | 19.2 µM | 1.78 µM | 1.86 µM | – | 17 | CC50 [9]: 31.1 µM |
| O=C1CSC(c2c(Cl)cccc2Cl)N1c1ccc(Br)cn1 (stereo unspecified) | 18.6 | 28.2 µM | 1.51 µM | 1.31 µM | 56.6 µM | 20 | CC50 [9]: 26 µM |
| Cc1cccc(N2C(=O)CSC2c2c(F)cccc2F)n1 (stereo unspecified) | 1536 | 126 µM | 0.082 µM | – | 2.9 µM | – | EC50 [14]: 0.117 µM; EC50 [15]: ≥ 13 µM; EC50 [16]: 35.9 µM; EC50 [17]: 0.75 µM; EC50 [18]: 0.39 µM; EC50 [21]: ≥ 13 µM |
| O=C1CSC(c2c(F)cccc2Cl)N1c1ccc(Cl)cn1 (stereo unspecified) | – | 29.4 µM | 2.13 µM | – | – | – | Selectivity index [4]: 14 |
| O=C1CSC(c2c(F)cccc2Cl)N1c1ccc(Br)cn1 (stereo unspecified) | 25 | 30.7 µM | 1.24 µM | – | – | – | – |
| O=C1CSC(c2c(Cl)cccc2Cl)N1c1cccnc1 (stereo unspecified) | – | 23.4 µM | – | – | – | – | EC50 [23]: Not Active |
